# Read-outs that look alike come from different tables or passages of the source.
# Experiments:
# [1] = tested on: human SKM-1 acute myeloid leukemia cells; assay: SKM-1 antiproliferation cell-based assay (ATPlite); settings: Homo sapiens
# How it was run: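 Log-phase cells in RPMI 1640/15% FBS were seeded at 34722 cells/mL and exposed for 4 days to nine-concentration DMSO serial dilutions in triplicate. Viability was read as ATP luminescence (ATPlite 1step), and IC50 values came from variable-slope non-linear regression.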
# [2] = biological target: T1, human BRD4 bromodomain II (Homo sapiens, UniProt O60885); assay: Bromodomain binding assay (AlphaScreen), BRD4 BDII
# T1 construct: human BRD4 bromodomain II [based on Genbank NM_058243, residues 349-460]; host or cells: E. coli
# How it was run: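 Tagged BRD4 BDI or BDII constructs, expressed in E. coli, competed against a K5/K8/K12/K16-acetylated biotin-H4 peptide. Proximity signal between bead pairs after room-temperature incubations gave concentration-response curves, from which IC50 was derived.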
# [3] = SKM-1, SKM-1 antiproliferation assay
# [4] = BRD4 BDII AlphaScreen assay, read-out: BRD4 BD2 IC50
# [5] = SKM-1, 96 h, SKM-1 antiproliferation assay, 4 days, Table C2
# [6] = AlphaScreen assay, Table C2, read-out: BRD4 BDII IC50
SMILES,"GI50 [1, 3]","IC50 [2, 4]","GI50 [1, 5]","IC50 [2, 6]"
"CC(C)N1CCC12CCN(c1cc(-c3cc(F)cc(-c4ccc(-n5ccn(C)c5=O)c(Cl)c4)c3O)cnc1N(C)C)C2 (centres unmarked) [Example 987, 1-(3-chloro-3′-(6-(dimethylamino)-5-(1-isopropyl-1,6-diazaspiro[3.4]octan-6-yl)pyridin-3-yl)-5′-fluoro-2′-hydroxy-[1,1′-biphenyl]-4-yl)-3-methyl-1H-imidazol-2(3H)-one]",0.3 to 30 nM,1 to 10 nM,,
"CC(=O)Nc1ccc(-c2cc(F)cc(-c3ccc(F)c(N4CCNCC4)c3)c2O)cc1F [Example 237, N-(3,4″,5′-trifluoro-2′-hydroxy-3″-(piperazin-1-yl)-[1,1′:3′,1″-terphenyl]-4-yl)acetamide]",,,30 to 300 nM,0.01 to 1 nM
"CC[C@@H]1CN(c2cc(-c3cc(F)cc(-c4ccc(-n5ccn(C)c5=O)c(Cl)c4)c3O)cc3[nH]ncc23)CCN1 [Example 594, (R)-1-(3-chloro-3′-(4-(3-ethylpiperazin-1-yl)-1H-indazol-6-yl)-5′-fluoro-2′-hydroxy-[1,1′-biphenyl]-4-yl)-3-methyl-1H-imidazol-2(3H)-one]",,,0.3 to 30 nM,0.01 to 1 nM
"Cn1ccn(-c2ccc(-c3cc(F)cc(-c4ccnc(N5CC6CCC(C5)N6)c4)c3O)cc2Cl)c1=O [Example 511, 1-(3′-(2-(3,8-diazabicyclo[3.2.1]octan-3-yl)pyridin-4-yl)-3-chloro-5′-fluoro-2′-hydroxy-[1,1′-biphenyl]-4-yl)-3-methyl-1H-imidazol-2(3H)-one]",,,0.3 to 30 nM,1 to 10 nM
"Cc1ncc(-c2cc(F)cc(-c3ccc(-n4ccn(C)c4=O)c(Cl)c3)c2O)cc1N1CCCN(C(C)(C)C)CC1 [Example 844, 1-(3′-(5-(4-(tert-butyl)-1,4-diazepan-1-yl)-6-methylpyridin-3-yl)-3-chloro-5′-fluoro-2′-hydroxy-[1,1′-biphenyl]-4-yl)-3-methyl-1H-imidazol-2(3H)-one]",,,0.3 to 30 nM,1 to 10 nM
"CCc1cc(-c2cc(F)cc(-c3cccc(N4CCN(C(C)(C)C)CC4)c3)c2O)cc(Cl)c1-n1ccn(C)c1=O [Example 929, 1-(3″-(4-(tert-butyl)piperazin-1-yl)-3-chloro-5-ethyl-5′-fluoro-2′-hydroxy-[1,1′:3′,1″-terphenyl]-4-yl)-3-methyl-1H-imidazol-2(3H)-one]",300 to 3000 nM,> 100 nM,,
"COCCCN1CCN(c2cc(-c3cc(F)cc(-c4ccc(-n5ccn(C)c5=O)c(Cl)c4)c3O)ccn2)CC1 [Example 633, 1-(3-chloro-5′-fluoro-2′-hydroxy-3′-(2-(4-(3-methoxypropyl)piperazin-1-yl)pyridin-4-yl)-[1,1′-biphenyl]-4-yl)-3-methyl-1H-imidazol-2(3H)-one]",,,0.3 to 30 nM,0.01 to 1 nM
"Cn1ccn(-c2ccc(-c3cc(F)cc(-c4ccnc(N5CCC6(CCC(=O)N6)C5)c4)c3O)cc2Cl)c1=O (centres unmarked) [Example 736, 7-(4-(3′-chloro-5-fluoro-2-hydroxy-4′-(3-methyl-2-oxo-2,3-dihydro-1H-imidazol-1-yl)-[1,1′-biphenyl]-3-yl)pyridin-2-yl)-1,7-diazaspiro[4.4]nonan-2-one]",,,0.3 to 30 nM,0.01 to 1 nM
"C[C@@H]1CN(c2cc(-c3cc(F)cc(-c4ccc(-n5ccn(C)c5=O)c(Cl)c4)c3O)cc(=O)n2C)CCN1 [Example 689, (R)-4-(3′-chloro-5-fluoro-2-hydroxy-4′-(3-methyl-2-oxo-2,3-dihydro-1H-imidazol-1-yl)-[1,1′-biphenyl]-3-yl)-1-methyl-6-(3-methylpiperazin-1-yl)pyridin-2(1H)-one]",,,0.3 to 30 nM,0.01 to 1 nM
"CC(C)(C)N1CCN(c2cccc(-c3cc(F)cc(-c4ccc(-n5cc[nH]c5=O)c(Cl)c4)c3O)c2)CC1 [Example 928, 1-(3″-(4-(tert-butyl)piperazin-1-yl)-3-chloro-5′-fluoro-2′-hydroxy-[1,1′:3′,1″-terphenyl]-4-yl)-1H-imidazol-2(3H)-one]",30 to 300 nM,1 to 10 nM,,
"CN[C@H]1CCCN(c2cncc(-c3cc(F)cc(-c4ccc(-n5ccn(C)c5=O)c(Cl)c4)c3O)c2)C1 [Example 478, (S)-1-(3-chloro-5′-fluoro-2′-hydroxy-3′-(5-(3-(methylamino)piperidin-1-yl)pyridin-3-yl)-[1,1′-biphenyl]-4-yl)-3-methyl-1H-imidazol-2(3H)-one]",,,0.3 to 30 nM,0.01 to 1 nM
"Cn1ccn(-c2ccc(-c3cc(F)cc(-c4ccnc(N5CC6NCCOC6C5)c4)c3O)cc2Cl)c1=O (centres unmarked) [Example 648, 1-(3-chloro-5′-fluoro-3′-(2-(hexahydropyrrolo[3,4-b][1,4]oxazin-6(2H)-yl)pyridin-4-yl)-2′-hydroxy-[1,1′-biphenyl]-4-yl)-3-methyl-1H-imidazol-2(3H)-one]",,,0.3 to 30 nM,0.01 to 1 nM
"Cc1cc(-c2cc(F)cc(-c3ccnc(N4CCNCC4)c3)c2O)cc(Cl)c1N1CCCC1=O [Example 386, 1-(3-chloro-5′-fluoro-2′-hydroxy-5-methyl-3′-(2-(piperazin-1-yl)pyridin-4-yl)-[1,1′-biphenyl]-4-yl)pyrrolidin-2-one]",,,300 to 3000 nM,> 100 nM
"Cn1ccn(-c2ccc(-c3cc(F)cc(-c4cncc(N5CC[C@](C)(N)C5)c4)c3O)cc2Cl)c1=O [Example 746, (S)-1-(3′-(5-(3-amino-3-methylpyrrolidin-1-yl)pyridin-3-yl)-3-chloro-5′-fluoro-2′-hydroxy-[1,1′-biphenyl]-4-yl)-3-methyl-1H-imidazol-2(3H)-one]",,,0.3 to 30 nM,0.01 to 1 nM
"Cn1ccn(-c2ccc(-c3cc(F)cc(-c4ccnc(N5CCN(C(C)(C)C)CC5)c4)c3O)cc2Cl)c1=O [Example 614, 1-(3′-(2-(4-(tert-butyl)piperazin-1-yl)pyridin-4-yl)-3-chloro-5′-fluoro-2′-hydroxy-[1,1′-biphenyl]-4-yl)-3-methyl-1H-imidazol-2(3H)-one]",,,0.3 to 30 nM,0.01 to 1 nM
"CC(=O)NCc1cc(-c2cccc(-c3ccc(N4CCN(C)C4=O)c(Cl)c3)c2O)cc(N2CCNCC2)c1 [Example 327, N-((3″-chloro-2′-hydroxy-4″-(3-methyl-2-oxoimidazolidin-1-yl)-5-(piperazin-1-yl)-[1,1′:3′,1″-terphenyl]-3-yl)methyl)acetamide]",,,30 to 300 nM,1 to 10 nM
"COc1ncc(-c2nc(C)cc(-c3ccc(-n4ccn(C)c4=O)c(Cl)c3)c2O)cc1N1CC[C@]2(CCN2C(C)C)C1 [Example 1022, (R)-1-(2-chloro-4-(3-hydroxy-5′-(1-isopropyl-1,6-diazaspiro[3.4]octan-6-yl)-6'-methoxy-6-methyl-[2,3′-bipyridin]-4-yl)phenyl)-3-methyl-1,3-dihydro-2H-imidazol-2-one]",0.3 to 30 nM,0.01 to 1 nM,,
"Cn1ccn(-c2ccc(-c3cc(F)cc(-c4ccnc(N5CCN(C6COC6)CC5)c4)c3O)cc2Cl)c1=O [Example 528, 1-(3-chloro-5′-fluoro-2′-hydroxy-3′-(2-(4-(oxetan-3-yl)piperazin-1-yl)pyridin-4-yl)-[1,1′-biphenyl]-4-yl)-3-methyl-1H-imidazol-2(3H)-one]",,,0.3 to 30 nM,1 to 10 nM
"Cc1cc(-c2ccc(-n3ccn(C)c3=O)c(Cl)c2)c(O)c(-c2cnnc(N3CCN(C(C)(C)C)CC3)c2)n1 [Example 1017, 1-(4-(2-(6-(4-(tert-butyl)piperazin-1-yl)pyridazin-4-yl)-3-hydroxy-6-methylpyridin-4-yl)-2-chlorophenyl)-3-methyl-1H-imidazol-2(3H)-one]",30 to 300 nM,1 to 10 nM,,
"CC[C@@]1(O)CCN(c2cc(-c3cc(F)cc(-c4ccc(-n5ccn(C)c5=O)c(Cl)c4)c3O)ccn2)C1 [Example 820, (R)-1-(3-chloro-3′-(2-(3-ethyl-3-hydroxypyrrolidin-1-yl)pyridin-4-yl)-5′-fluoro-2′-hydroxy-[1,1′-biphenyl]-4-yl)-3-methyl-1H-imidazol-2(3H)-one]",,,0.3 to 30 nM,1 to 10 nM
Cc1ncc(-c2cc(F)cc(-c3ccc(-n4ccn(C)c4=O)c(Cl)c3)c2O)cc1N1CC(F)(F)[C@@](C)(O)C1 [Example 897],30 to 300 nM,1 to 10 nM,,
COc1ncc(-c2cc(F)cc(-c3ccc(-n4ccn(C)c4=O)c(Cl)c3)c2O)cc1N1CC[C@]2(CCN2C(C)C)C1 [Example 903],0.3 to 30 nM,0.01 to 1 nM,,
"CN1CCN(c2ccc(-c3cc(F)cc(-c4cc(N5CCNCC5)c5cc[nH]c5c4)c3O)cc2Cl)C1=O [Example 460, 1-(3-chloro-5′-fluoro-2′-hydroxy-3′-(4-(piperazin-1-yl)-1H-indol-6-yl)-[1,1′-biphenyl]-4-yl)-3-methylimidazolidin-2-one]",,,0.3 to 30 nM,1 to 10 nM
"Cc1cc(-c2ccc(-n3ccn(C)c3=O)c(F)c2)c(O)c(-c2cccc(N3CCN(C(C)(C)C)CC3)c2)n1 [Example 1003, 1-(4-(2-(3-(4-(tert-butyl)piperazin-1-yl)phenyl)-3-hydroxy-6-methylpyridin-4-yl)-2-fluorophenyl)-3-methyl-1H-imidazol-2(3H)-one]",0.3 to 30 nM,1 to 10 nM,,
"Cn1ccn(-c2ccc(-c3cc(F)cc(-c4ccnc(N5CC(O)C6(CC6)C5)c4)c3O)cc2Cl)c1=O (centres unmarked) [Example 743, 1-(3-chloro-5′-fluoro-2′-hydroxy-3′-(2-(7-hydroxy-5-azaspiro[2.4]heptan-5-yl)pyridin-4-yl)-[1,1′-biphenyl]-4-yl)-3-methyl-1H-imidazol-2(3H)-one]",,,0.3 to 30 nM,0.01 to 1 nM

# Reference: US20250179059A1 (The Regents of the University of California, priority 2021, published 2025)
